Assay results taken from the kinase profiling compilation of Christmann-Franck et al. (2016).

Assays:
Assay in all cases: KINOMEscan competition binding
PRKG1 (human) = PRKG1 (human) (UniProt Q13976)
MTOR (human) = MTOR (human) (UniProt P42345)
EPHA5 (human) = EPHA5 (human) (UniProt P54756)
SIK3 (human) = SIK3 (human) (UniProt Q9Y2K2)
DYRK1B (human) = DYRK1B (human) (UniProt Q9Y463)
TNIK (human) = TNIK (human) (UniProt Q9UKE5)
CAMK1G (human) = CAMK1G (human) (UniProt Q96NX5)
MARK2 (human) = MARK2 (human) (UniProt Q7KZI7)
[1] = system: KIT (human), P10721 [V559D]
CLK4 (human) = CLK4 (human) (UniProt Q9HAZ1)
IRAK1 (human) = IRAK1 (human) (UniProt P51617)
MARK3 (human) = MARK3 (human) (UniProt P27448)
RPS6KB1 (human) = RPS6KB1 (human) (UniProt P23443)
CDK17 (human) = CDK17 (human) (UniProt Q00537)
CSNK2A1 (human) = CSNK2A1 (human) (UniProt P68400)
RPS6KA1 KD1 (human) = RPS6KA1 KD1 (human) (UniProt Q15418)
MAP4K2 (human) = MAP4K2 (human) (UniProt Q12851)
EPHB1 (human) = EPHB1 (human) (UniProt P54762)
SRC (human) = SRC (human) (UniProt P12931)
PLK1 (human) = PLK1 (human) (UniProt P53350)
PIM3 (human) = PIM3 (human) (UniProt Q86V86)
ACVR1 (human) = ACVR1 (human) (UniProt Q04771)
SRPK3 (human) = SRPK3 (human) (UniProt Q9UPE1)
[2] = system: BRAF (human), P15056 [V600E]; details: compound 1.0 µM
EPHA2 (human) = EPHA2 (human) (UniProt P29317)
[3] = system: KIT (human), P10721 [V559D/V654A]
[4] = system: FGFR3 (human), P22607 [G697C]
STK32C (human) = STK32C (human) (UniProt Q86UX6)
MAP2K2 (human) = MAP2K2 (human) (UniProt P36507)
TYRO3 (human) = TYRO3 (human) (UniProt Q06418)
CDK15 (human) = CDK15 (human) (UniProt Q96Q40)
EIF2AK1 (human) = EIF2AK1 (human) (UniProt Q9BQI3)
CHEK2 (human) = CHEK2 (human) (UniProt O96017)
MAP2K5 (human) = MAP2K5 (human) (UniProt Q13163)
CLK2 (human) = CLK2 (human) (UniProt P49760)
CAMK2D (human) = CAMK2D (human) (UniProt Q13557)
AXL (human) = AXL (human) (UniProt P30530)
MYLK2 (human) = MYLK2 (human) (UniProt Q9H1R3)
[5] = system: PIK3CA (human), P42336 [I800L]
NUAK2 (human) = NUAK2 (human) (UniProt Q9H093)
CDK9 (human) = CDK9 (human) (UniProt P50750)
AURKA (human) = AURKA (human) (UniProt O14965)
MST4 (human) = MST4 (human) (UniProt Q9P289)

Sequence of TNIK (human) (Q9UKE5 whole entry, looked up): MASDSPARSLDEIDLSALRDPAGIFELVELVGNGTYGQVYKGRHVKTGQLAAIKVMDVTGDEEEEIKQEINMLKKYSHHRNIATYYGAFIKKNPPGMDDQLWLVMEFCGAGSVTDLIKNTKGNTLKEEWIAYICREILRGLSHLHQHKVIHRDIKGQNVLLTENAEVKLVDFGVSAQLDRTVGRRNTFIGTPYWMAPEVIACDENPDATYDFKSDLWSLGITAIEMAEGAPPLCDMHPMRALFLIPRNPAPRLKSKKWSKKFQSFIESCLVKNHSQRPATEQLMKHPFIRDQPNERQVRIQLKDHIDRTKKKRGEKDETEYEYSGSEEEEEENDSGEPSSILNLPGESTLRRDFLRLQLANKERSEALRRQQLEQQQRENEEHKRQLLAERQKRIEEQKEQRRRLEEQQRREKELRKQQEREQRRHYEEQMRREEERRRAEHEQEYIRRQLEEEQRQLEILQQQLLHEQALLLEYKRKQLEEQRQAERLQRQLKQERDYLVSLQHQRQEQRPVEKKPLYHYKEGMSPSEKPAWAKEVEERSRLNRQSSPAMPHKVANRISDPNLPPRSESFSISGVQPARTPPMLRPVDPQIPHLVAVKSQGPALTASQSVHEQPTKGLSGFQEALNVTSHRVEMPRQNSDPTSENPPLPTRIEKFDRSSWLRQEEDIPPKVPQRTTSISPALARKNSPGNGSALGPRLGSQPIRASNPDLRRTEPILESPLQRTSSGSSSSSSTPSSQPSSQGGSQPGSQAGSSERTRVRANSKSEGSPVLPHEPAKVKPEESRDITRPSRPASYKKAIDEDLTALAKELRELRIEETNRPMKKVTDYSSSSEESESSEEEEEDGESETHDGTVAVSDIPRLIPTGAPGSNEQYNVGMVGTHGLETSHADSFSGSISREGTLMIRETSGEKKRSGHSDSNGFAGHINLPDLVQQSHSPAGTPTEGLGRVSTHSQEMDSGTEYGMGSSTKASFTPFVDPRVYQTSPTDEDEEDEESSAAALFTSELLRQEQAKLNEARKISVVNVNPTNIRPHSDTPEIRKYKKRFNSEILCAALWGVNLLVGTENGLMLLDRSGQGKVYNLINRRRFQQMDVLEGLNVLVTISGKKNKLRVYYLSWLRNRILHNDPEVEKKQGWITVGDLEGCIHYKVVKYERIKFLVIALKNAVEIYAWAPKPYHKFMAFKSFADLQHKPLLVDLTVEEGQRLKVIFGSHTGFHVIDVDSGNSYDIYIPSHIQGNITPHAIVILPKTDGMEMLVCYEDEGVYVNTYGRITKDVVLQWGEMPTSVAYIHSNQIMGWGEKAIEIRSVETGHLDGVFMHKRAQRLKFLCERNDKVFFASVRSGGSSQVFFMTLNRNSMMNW
Sequence of DYRK1B (human) (Q9Y463 whole entry, looked up): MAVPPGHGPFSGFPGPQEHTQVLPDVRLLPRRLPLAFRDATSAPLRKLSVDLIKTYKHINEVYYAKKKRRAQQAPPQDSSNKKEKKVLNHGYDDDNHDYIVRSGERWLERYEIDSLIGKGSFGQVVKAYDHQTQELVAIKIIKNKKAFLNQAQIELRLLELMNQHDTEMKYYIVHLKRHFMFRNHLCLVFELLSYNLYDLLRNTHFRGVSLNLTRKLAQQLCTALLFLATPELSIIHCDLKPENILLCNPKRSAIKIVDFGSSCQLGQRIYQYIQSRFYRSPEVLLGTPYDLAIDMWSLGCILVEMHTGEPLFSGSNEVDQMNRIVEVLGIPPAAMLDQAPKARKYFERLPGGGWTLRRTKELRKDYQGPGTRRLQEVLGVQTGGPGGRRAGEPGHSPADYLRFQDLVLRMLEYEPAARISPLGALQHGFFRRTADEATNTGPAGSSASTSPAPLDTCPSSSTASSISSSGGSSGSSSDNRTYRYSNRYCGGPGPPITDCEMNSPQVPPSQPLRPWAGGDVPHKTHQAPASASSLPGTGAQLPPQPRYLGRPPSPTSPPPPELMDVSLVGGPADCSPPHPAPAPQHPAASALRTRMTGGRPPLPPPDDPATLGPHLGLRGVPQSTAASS
Sequence of CHEK2 (human) (O96017 whole entry, looked up): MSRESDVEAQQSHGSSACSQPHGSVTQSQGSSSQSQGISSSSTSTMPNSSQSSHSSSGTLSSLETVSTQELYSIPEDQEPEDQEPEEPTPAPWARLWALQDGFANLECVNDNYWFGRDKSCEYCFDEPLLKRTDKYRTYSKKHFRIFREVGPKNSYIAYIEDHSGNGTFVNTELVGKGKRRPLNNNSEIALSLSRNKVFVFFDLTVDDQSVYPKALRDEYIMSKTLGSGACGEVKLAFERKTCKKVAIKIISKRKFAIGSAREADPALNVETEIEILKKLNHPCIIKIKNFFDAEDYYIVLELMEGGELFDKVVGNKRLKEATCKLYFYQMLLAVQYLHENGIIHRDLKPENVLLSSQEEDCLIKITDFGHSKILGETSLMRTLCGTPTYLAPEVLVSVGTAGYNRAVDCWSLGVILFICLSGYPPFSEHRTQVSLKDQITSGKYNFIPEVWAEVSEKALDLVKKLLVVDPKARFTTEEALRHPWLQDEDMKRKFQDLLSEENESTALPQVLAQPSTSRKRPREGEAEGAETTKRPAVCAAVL
Sequence of EIF2AK1 (human) (Q9BQI3 whole entry, looked up): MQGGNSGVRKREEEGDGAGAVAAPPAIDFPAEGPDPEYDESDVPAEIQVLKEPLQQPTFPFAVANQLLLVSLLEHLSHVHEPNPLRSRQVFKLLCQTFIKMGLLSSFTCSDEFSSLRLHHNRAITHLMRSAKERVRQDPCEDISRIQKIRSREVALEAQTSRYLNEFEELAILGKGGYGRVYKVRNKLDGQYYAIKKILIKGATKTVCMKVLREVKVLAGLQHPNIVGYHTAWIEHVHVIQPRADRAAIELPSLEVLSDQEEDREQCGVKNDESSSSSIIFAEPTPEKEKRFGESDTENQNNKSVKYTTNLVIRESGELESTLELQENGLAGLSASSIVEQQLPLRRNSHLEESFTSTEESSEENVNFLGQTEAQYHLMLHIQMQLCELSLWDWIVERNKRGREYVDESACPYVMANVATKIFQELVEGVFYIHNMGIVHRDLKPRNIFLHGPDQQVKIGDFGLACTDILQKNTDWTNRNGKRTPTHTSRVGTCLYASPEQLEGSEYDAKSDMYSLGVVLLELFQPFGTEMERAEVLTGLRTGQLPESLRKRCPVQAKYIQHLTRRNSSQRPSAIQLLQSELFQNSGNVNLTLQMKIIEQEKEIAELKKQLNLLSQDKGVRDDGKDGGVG
Sequence of EPHA2 (human) (P29317 whole entry, looked up): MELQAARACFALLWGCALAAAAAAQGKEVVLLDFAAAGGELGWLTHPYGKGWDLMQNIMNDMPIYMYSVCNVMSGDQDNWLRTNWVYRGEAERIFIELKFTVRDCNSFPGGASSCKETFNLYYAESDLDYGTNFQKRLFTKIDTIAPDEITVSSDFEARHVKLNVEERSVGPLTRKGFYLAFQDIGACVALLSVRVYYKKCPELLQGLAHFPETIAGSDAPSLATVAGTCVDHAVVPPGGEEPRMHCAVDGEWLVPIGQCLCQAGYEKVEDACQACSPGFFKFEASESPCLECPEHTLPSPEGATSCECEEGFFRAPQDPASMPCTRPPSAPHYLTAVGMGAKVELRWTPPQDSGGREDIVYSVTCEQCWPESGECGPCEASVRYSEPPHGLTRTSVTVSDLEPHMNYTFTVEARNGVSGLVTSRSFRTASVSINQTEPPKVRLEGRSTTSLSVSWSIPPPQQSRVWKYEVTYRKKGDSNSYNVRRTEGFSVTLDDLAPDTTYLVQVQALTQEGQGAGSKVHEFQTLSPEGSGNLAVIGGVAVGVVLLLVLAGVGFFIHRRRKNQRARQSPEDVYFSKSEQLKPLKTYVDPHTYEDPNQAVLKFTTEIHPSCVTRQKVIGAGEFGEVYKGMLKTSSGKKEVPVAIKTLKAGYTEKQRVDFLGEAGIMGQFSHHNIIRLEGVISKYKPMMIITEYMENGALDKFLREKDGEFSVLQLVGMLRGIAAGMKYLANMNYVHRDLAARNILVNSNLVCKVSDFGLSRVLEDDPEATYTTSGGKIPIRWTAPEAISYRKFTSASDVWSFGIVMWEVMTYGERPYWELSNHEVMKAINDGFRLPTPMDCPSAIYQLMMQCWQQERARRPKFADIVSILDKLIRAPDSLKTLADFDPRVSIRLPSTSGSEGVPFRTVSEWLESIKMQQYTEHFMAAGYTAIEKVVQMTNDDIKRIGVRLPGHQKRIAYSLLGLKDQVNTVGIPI
Sequence of CDK17 (human) (Q00537 whole entry, looked up): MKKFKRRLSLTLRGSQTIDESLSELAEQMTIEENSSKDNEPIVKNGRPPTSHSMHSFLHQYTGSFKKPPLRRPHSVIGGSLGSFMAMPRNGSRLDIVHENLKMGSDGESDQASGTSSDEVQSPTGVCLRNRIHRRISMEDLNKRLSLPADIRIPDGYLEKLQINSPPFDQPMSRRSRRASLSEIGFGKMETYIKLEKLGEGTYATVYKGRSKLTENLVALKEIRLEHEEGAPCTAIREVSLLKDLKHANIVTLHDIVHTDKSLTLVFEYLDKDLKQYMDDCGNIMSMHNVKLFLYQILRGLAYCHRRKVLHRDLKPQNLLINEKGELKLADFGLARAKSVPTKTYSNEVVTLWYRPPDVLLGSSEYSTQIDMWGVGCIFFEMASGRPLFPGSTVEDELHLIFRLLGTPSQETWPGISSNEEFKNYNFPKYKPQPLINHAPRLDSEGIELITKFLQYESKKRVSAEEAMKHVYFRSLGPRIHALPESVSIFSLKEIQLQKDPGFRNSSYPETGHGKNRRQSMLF

SMILES: CN(C)C/C=C/C(=O)Nc1cccc(C(=O)Nc2ccc(Nc3nccc(-c4cccnc4)n3)cc2)c1
- kinase still bound, per cent of control (PRKG1 (human); compound 1.0 µM): 100%
- kinase still bound, per cent of control (MTOR (human); compound 1.0 µM): 100%
- kinase still bound, per cent of control (EPHA5 (human); compound 1.0 µM): 96%
- kinase still bound, per cent of control (SIK3 (human); compound 1.0 µM): 100%
- kinase still bound, per cent of control (DYRK1B (human); compound 1.0 µM): 52%
- kinase still bound, per cent of control (TNIK (human); compound 1.0 µM): 40%
- kinase still bound, per cent of control (CAMK1G (human); compound 1.0 µM): 78%
- kinase still bound, per cent of control (MARK2 (human); compound 1.0 µM): 69%
- kinase still bound, per cent of control ([1]; compound 1.0 µM): 1%
- kinase still bound, per cent of control (CLK4 (human); compound 1.0 µM): 16%
- kinase still bound, per cent of control (IRAK1 (human); compound 1.0 µM): 0.1%
- kinase still bound, per cent of control (MARK3 (human); compound 1.0 µM): 100%
- kinase still bound, per cent of control (RPS6KB1 (human); compound 1.0 µM): 68%
- kinase still bound, per cent of control (CDK17 (human); compound 1.0 µM): 84%
- kinase still bound, per cent of control (CSNK2A1 (human); compound 1.0 µM): 17%
- kinase still bound, per cent of control (RPS6KA1 KD1 (human); compound 1.0 µM): 100%
- kinase still bound, per cent of control (MAP4K2 (human); compound 1.0 µM): 9.9%
- kinase still bound, per cent of control (EPHB1 (human); compound 1.0 µM): 92%
- kinase still bound, per cent of control (SRC (human); compound 1.0 µM): 88%
- kinase still bound, per cent of control (PLK1 (human); compound 1.0 µM): 100%
- kinase still bound, per cent of control (PIM3 (human); compound 1.0 µM): 92%
- kinase still bound, per cent of control (ACVR1 (human); compound 1.0 µM): 70%
- kinase still bound, per cent of control (SRPK3 (human); compound 1.0 µM): 28%
- kinase still bound, per cent of control [2]: 60%
- kinase still bound, per cent of control (EPHA2 (human); compound 1.0 µM): 86%
- kinase still bound, per cent of control ([3]; compound 1.0 µM): 67%
- kinase still bound, per cent of control ([4]; compound 1.0 µM): 100%
- kinase still bound, per cent of control (STK32C (human); compound 1.0 µM): 98%
- kinase still bound, per cent of control (MAP2K2 (human); compound 1.0 µM): 58%
- kinase still bound, per cent of control (TYRO3 (human); compound 1.0 µM): 87%
- kinase still bound, per cent of control (CDK15 (human); compound 1.0 µM): 96%
- kinase still bound, per cent of control (EIF2AK1 (human); compound 1.0 µM): 100%
- kinase still bound, per cent of control (CHEK2 (human); compound 1.0 µM): 100%
- kinase still bound, per cent of control (MAP2K5 (human); compound 1.0 µM): 6.8%
- kinase still bound, per cent of control (CLK2 (human); compound 1.0 µM): 18%
- kinase still bound, per cent of control (CAMK2D (human); compound 1.0 µM): 100%
- kinase still bound, per cent of control (AXL (human); compound 1.0 µM): 100%
- kinase still bound, per cent of control (MYLK2 (human); compound 1.0 µM): 35%
- kinase still bound, per cent of control ([5]; compound 1.0 µM): 98%
- kinase still bound, per cent of control (NUAK2 (human); compound 1.0 µM): 31%
- kinase still bound, per cent of control (CDK9 (human); compound 1.0 µM): 55%
- kinase still bound, per cent of control (AURKA (human); compound 1.0 µM): 67%
- kinase still bound, per cent of control (MST4 (human); compound 1.0 µM): 34%

SMILES: CN(C)C/C=C/C(=O)Nc1cccc(C(=O)Nc2ccc(Nc3nccc(/C(C#N)=C4\Nc5ccccc5S4)n3)cc2)c1
- kinase still bound, per cent of control (PRKG1 (human); compound 1.0 µM): 100%
- kinase still bound, per cent of control (MTOR (human); compound 1.0 µM): 100%
- kinase still bound, per cent of control (EPHA5 (human); compound 1.0 µM): 100%
- kinase still bound, per cent of control (SIK3 (human); compound 1.0 µM): 100%
- kinase still bound, per cent of control (DYRK1B (human); compound 1.0 µM): 66%
- kinase still bound, per cent of control (TNIK (human); compound 1.0 µM): 100%
- kinase still bound, per cent of control (CAMK1G (human); compound 1.0 µM): 100%
- kinase still bound, per cent of control (MARK2 (human); compound 1.0 µM): 100%
- kinase still bound, per cent of control ([1]; compound 1.0 µM): 11%
- kinase still bound, per cent of control (CLK4 (human); compound 1.0 µM): 64%
- kinase still bound, per cent of control (IRAK1 (human); compound 1.0 µM): 1.2%
- kinase still bound, per cent of control (MARK3 (human); compound 1.0 µM): 100%
- kinase still bound, per cent of control (RPS6KB1 (human); compound 1.0 µM): 100%
- kinase still bound, per cent of control (CDK17 (human); compound 1.0 µM): 100%
- kinase still bound, per cent of control (CSNK2A1 (human); compound 1.0 µM): 27%
- kinase still bound, per cent of control (RPS6KA1 KD1 (human); compound 1.0 µM): 100%
- kinase still bound, per cent of control (MAP4K2 (human); compound 1.0 µM): 100%
- kinase still bound, per cent of control (EPHB1 (human); compound 1.0 µM): 100%
- kinase still bound, per cent of control (SRC (human); compound 1.0 µM): 100%
- kinase still bound, per cent of control (PLK1 (human); compound 1.0 µM): 96%
- kinase still bound, per cent of control (PIM3 (human); compound 1.0 µM): 100%
- kinase still bound, per cent of control (ACVR1 (human); compound 1.0 µM): 100%
- kinase still bound, per cent of control (SRPK3 (human); compound 1.0 µM): 82%
- kinase still bound, per cent of control (EPHA2 (human); compound 1.0 µM): 100%
- kinase still bound, per cent of control ([3]; compound 1.0 µM): 100%
- kinase still bound, per cent of control ([4]; compound 1.0 µM): 31%
- kinase still bound, per cent of control (STK32C (human); compound 1.0 µM): 100%
- kinase still bound, per cent of control (MAP2K2 (human); compound 1.0 µM): 100%
- kinase still bound, per cent of control (TYRO3 (human); compound 1.0 µM): 100%
- kinase still bound, per cent of control (CDK15 (human); compound 1.0 µM): 100%
- kinase still bound, per cent of control (EIF2AK1 (human); compound 1.0 µM): 100%
- kinase still bound, per cent of control (CHEK2 (human); compound 1.0 µM): 100%
- kinase still bound, per cent of control (MAP2K5 (human); compound 1.0 µM): 100%
- kinase still bound, per cent of control (CLK2 (human); compound 1.0 µM): 100%
- kinase still bound, per cent of control (CAMK2D (human); compound 1.0 µM): 100%
- kinase still bound, per cent of control (AXL (human); compound 1.0 µM): 100%
- kinase still bound, per cent of control (MYLK2 (human); compound 1.0 µM): 100%
- kinase still bound, per cent of control ([5]; compound 1.0 µM): 100%
- kinase still bound, per cent of control (NUAK2 (human); compound 1.0 µM): 100%
- kinase still bound, per cent of control (CDK9 (human); compound 1.0 µM): 100%
- kinase still bound, per cent of control (AURKA (human); compound 1.0 µM): 100%
- kinase still bound, per cent of control (MST4 (human); compound 1.0 µM): 100%

SMILES: Cc1ccc(NC(=O)c2ccc(NC(=O)/C=C/CN(C)C)cc2)cc1Nc1nccc(-c2cccnc2)n1
- kinase still bound, per cent of control (PRKG1 (human); compound 10.0 µM): 97%
- kinase still bound, per cent of control (MTOR (human); compound 10.0 µM): 100%
- kinase still bound, per cent of control (EPHA5 (human); compound 10.0 µM): 97%
- kinase still bound, per cent of control (SIK3 (human); compound 10.0 µM): 100%
- kinase still bound, per cent of control (DYRK1B (human); compound 10.0 µM): 68%
- kinase still bound, per cent of control (TNIK (human); compound 10.0 µM): 43%
- kinase still bound, per cent of control (CAMK1G (human); compound 10.0 µM): 79%
- kinase still bound, per cent of control (MARK2 (human); compound 10.0 µM): 78%
- kinase still bound, per cent of control ([1]; compound 10.0 µM): 0%
- kinase still bound, per cent of control (CLK4 (human); compound 10.0 µM): 6.2%
- kinase still bound, per cent of control (IRAK1 (human); compound 10.0 µM): 13%
- kinase still bound, per cent of control (MARK3 (human); compound 10.0 µM): 100%
- kinase still bound, per cent of control (RPS6KB1 (human); compound 10.0 µM): 100%
- kinase still bound, per cent of control (CDK17 (human); compound 10.0 µM): 100%
- kinase still bound, per cent of control (CSNK2A1 (human); compound 10.0 µM): 11%
- kinase still bound, per cent of control (RPS6KA1 KD1 (human); compound 10.0 µM): 63%
- kinase still bound, per cent of control (MAP4K2 (human); compound 10.0 µM): 81%
- kinase still bound, per cent of control (EPHB1 (human); compound 10.0 µM): 100%
- kinase still bound, per cent of control (SRC (human); compound 10.0 µM): 78%
- kinase still bound, per cent of control (PLK1 (human); compound 10.0 µM): 83%
- kinase still bound, per cent of control (PIM3 (human); compound 10.0 µM): 66%
- kinase still bound, per cent of control (ACVR1 (human); compound 10.0 µM): 100%
- kinase still bound, per cent of control (SRPK3 (human); compound 10.0 µM): 76%
- kinase still bound, per cent of control (EPHA2 (human); compound 10.0 µM): 90%
- kinase still bound, per cent of control ([3]; compound 10.0 µM): 3.4%
- kinase still bound, per cent of control ([4]; compound 10.0 µM): 97%
- kinase still bound, per cent of control (STK32C (human); compound 10.0 µM): 80%
- kinase still bound, per cent of control (MAP2K2 (human); compound 10.0 µM): 74%
- kinase still bound, per cent of control (TYRO3 (human); compound 10.0 µM): 100%
- kinase still bound, per cent of control (CDK15 (human); compound 10.0 µM): 100%
- kinase still bound, per cent of control (EIF2AK1 (human); compound 10.0 µM): 94%
- kinase still bound, per cent of control (CHEK2 (human); compound 10.0 µM): 94%
- kinase still bound, per cent of control (MAP2K5 (human); compound 10.0 µM): 66%
- kinase still bound, per cent of control (CLK2 (human); compound 10.0 µM): 100%
- kinase still bound, per cent of control (CAMK2D (human); compound 10.0 µM): 100%
- kinase still bound, per cent of control (AXL (human); compound 10.0 µM): 90%
- kinase still bound, per cent of control (MYLK2 (human); compound 10.0 µM): 68%
- kinase still bound, per cent of control ([5]; compound 10.0 µM): 88%
- kinase still bound, per cent of control (NUAK2 (human); compound 10.0 µM): 69%
- kinase still bound, per cent of control (CDK9 (human); compound 10.0 µM): 100%
- kinase still bound, per cent of control (AURKA (human); compound 10.0 µM): 100%
- kinase still bound, per cent of control (MST4 (human); compound 10.0 µM): 53%
